According to patent US11697648B2, “Fused pyrimidine pyridinone compounds as JAK inhibitors” (THERAVANCE BIOPHARMA R&D IP, LLC, priority 2019, dated 2023):

Key:
[1] = system: Caco-2 cell monolayers; experiment: Caco-2 permeation assay; type: in vitro ADME; conditions: 5 μM, A-B direction, with Verapamil (25 μM)
Method in brief: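 Passive A-to-B permeability with P-gp inhibited by verapamil (25 μM); compound at 5 μM, n=2. Both compartments sampled at t0 and t120 and quantified by LC-MS/MS, giving apparent permeability in cm/sec from flux, area and concentration.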

[2] = system: IL-2 stimulated STAT5 phosphorylation in Tall-1 human T cell line (JAK3); experiment: Cellular JAK3 potency assay: inhibition of IL-2 stimulated pSTAT5 in Tall-1 T cells; type: cell-based; conditions: IL-2 stimulated pSTAT5, Tall-1 T cells
Method in brief: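 AlphaLISA SureFire Ultra measures STAT5 Tyr694/699 phosphorylation in lysed Tall-1 human T cells. Cells were exposed to compound for 1 h at 37 °C before a 30 min IL-2 challenge (300 ng/ml final). Values are pIC50 means with standard deviation from signal-versus-concentration curves.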

[3] = target: JAK1 (Homo sapiens (Human), UniProt P23458); experiment: Biochemical JAK1 kinase assay (LanthaScreen)
Method in brief: (§1)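 GST-JAK + GFP-STAT1 peptide, HEPES pH 7.5/MgCl2/EGTA/Brij-35 buffer; cpd preincubation 1 h RT; ATP start, 1 h RT; stop with 10 mM EDTA + 2 nM Tb-anti-pSTAT1; TR-FRET 520/495. 4-parameter IC50 → pKi (Cheng-Prusoff).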

[4] = target: JAK2 (Homo sapiens (Human), UniProt O60674); experiment: Biochemical JAK2 kinase assay (LanthaScreen)
Method in brief: as §1

[5] = target: Tyk2 (Homo sapiens (Human), UniProt P29597); experiment: Biochemical Tyk2 kinase assay (LanthaScreen)
Method in brief: as §1

[6] = target: JAK3 (Homo sapiens (Human), UniProt P52333); experiment: Biochemical JAK3 kinase assay (LanthaScreen); conditions: for JAK3 (pKi)-JAK1 (pKi): selectivity JAK3 over JAK1, difference of pKi
Method in brief: as §1

Tyk2, sequence (P29597 whole entry): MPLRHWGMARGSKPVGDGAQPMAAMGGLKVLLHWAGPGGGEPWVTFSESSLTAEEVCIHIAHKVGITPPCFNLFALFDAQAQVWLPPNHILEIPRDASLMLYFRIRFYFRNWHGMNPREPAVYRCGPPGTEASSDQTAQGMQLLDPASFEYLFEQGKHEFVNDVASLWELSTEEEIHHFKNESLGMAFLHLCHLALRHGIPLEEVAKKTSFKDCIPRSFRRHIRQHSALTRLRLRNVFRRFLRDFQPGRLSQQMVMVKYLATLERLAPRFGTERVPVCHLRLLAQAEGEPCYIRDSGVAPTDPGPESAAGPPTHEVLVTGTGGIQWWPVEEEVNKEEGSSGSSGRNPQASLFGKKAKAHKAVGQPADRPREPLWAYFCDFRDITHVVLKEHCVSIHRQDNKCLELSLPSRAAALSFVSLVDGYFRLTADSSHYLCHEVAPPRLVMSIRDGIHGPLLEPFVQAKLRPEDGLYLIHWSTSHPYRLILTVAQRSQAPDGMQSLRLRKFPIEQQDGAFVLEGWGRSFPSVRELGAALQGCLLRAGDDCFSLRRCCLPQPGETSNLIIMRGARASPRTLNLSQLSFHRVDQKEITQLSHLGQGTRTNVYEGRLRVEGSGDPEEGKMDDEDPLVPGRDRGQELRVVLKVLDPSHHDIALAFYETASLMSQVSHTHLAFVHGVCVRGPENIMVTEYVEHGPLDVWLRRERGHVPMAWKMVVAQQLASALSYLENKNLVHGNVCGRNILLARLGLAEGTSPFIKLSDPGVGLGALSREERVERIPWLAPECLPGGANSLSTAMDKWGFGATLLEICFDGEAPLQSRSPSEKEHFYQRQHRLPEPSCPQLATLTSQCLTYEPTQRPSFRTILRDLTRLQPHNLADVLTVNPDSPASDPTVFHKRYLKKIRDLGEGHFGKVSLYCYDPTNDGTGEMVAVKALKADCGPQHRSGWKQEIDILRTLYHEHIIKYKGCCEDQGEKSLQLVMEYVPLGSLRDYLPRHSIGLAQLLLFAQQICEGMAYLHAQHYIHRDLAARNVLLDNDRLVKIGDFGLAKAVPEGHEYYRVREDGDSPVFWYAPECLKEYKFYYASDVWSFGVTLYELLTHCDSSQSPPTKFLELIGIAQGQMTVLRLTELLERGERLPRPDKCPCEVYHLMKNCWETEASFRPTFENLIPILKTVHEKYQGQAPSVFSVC
JAK2, sequence (O60674 whole entry): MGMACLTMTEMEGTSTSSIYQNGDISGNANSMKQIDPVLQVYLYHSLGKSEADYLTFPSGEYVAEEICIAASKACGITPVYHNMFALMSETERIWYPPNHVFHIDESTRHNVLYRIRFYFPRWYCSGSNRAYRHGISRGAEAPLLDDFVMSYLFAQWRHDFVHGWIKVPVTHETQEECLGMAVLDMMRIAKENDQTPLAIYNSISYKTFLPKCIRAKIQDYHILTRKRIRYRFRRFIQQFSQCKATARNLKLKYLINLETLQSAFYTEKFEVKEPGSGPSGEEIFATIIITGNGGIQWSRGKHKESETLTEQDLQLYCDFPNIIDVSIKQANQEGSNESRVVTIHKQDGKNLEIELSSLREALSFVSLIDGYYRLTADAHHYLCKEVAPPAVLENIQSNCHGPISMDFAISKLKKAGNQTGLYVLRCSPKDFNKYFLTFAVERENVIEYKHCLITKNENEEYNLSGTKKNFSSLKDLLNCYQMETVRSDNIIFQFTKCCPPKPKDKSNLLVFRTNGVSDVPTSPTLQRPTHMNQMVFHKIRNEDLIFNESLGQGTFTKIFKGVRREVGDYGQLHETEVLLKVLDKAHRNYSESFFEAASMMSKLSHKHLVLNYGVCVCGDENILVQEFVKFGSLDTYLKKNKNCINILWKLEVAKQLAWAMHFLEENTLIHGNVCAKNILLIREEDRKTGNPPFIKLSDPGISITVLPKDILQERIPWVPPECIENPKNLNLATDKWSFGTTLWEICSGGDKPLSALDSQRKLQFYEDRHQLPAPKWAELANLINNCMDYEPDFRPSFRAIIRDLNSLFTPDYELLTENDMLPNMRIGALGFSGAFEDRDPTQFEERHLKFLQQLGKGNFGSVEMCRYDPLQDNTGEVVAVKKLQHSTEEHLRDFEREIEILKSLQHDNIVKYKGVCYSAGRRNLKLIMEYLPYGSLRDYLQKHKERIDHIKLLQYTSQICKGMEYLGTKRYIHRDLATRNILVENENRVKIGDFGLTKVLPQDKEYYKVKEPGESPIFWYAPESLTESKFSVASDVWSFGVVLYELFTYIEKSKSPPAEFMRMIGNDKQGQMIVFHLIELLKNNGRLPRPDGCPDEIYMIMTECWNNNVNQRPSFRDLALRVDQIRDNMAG
JAK3, sequence (P52333 whole entry): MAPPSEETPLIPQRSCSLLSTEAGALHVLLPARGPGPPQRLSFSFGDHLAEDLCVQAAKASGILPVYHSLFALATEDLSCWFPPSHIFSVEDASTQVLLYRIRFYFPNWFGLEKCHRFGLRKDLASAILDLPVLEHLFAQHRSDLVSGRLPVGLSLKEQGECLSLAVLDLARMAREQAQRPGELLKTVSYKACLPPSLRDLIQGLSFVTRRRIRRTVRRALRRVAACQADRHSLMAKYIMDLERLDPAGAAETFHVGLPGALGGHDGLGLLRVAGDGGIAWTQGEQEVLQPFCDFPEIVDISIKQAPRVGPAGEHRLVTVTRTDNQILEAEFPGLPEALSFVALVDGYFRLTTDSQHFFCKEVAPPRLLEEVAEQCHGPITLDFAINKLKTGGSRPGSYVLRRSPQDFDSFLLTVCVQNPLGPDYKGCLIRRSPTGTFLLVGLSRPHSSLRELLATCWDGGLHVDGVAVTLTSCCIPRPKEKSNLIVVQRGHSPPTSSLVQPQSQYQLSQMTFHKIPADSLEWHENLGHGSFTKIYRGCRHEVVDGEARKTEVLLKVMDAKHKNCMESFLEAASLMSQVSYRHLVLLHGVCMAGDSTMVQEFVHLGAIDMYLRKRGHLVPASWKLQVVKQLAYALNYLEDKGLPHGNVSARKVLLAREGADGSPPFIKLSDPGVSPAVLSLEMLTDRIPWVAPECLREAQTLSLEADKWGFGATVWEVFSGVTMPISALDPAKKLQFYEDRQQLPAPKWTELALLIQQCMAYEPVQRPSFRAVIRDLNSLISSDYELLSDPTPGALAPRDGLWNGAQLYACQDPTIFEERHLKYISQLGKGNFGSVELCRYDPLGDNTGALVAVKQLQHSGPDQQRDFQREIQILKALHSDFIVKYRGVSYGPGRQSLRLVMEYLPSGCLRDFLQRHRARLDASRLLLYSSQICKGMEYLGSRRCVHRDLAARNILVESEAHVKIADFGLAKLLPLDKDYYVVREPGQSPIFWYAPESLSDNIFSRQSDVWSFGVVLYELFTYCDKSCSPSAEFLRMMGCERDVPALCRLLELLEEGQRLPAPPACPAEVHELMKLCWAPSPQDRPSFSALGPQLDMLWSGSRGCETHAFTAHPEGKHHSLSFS
JAK1, sequence (P23458 whole entry): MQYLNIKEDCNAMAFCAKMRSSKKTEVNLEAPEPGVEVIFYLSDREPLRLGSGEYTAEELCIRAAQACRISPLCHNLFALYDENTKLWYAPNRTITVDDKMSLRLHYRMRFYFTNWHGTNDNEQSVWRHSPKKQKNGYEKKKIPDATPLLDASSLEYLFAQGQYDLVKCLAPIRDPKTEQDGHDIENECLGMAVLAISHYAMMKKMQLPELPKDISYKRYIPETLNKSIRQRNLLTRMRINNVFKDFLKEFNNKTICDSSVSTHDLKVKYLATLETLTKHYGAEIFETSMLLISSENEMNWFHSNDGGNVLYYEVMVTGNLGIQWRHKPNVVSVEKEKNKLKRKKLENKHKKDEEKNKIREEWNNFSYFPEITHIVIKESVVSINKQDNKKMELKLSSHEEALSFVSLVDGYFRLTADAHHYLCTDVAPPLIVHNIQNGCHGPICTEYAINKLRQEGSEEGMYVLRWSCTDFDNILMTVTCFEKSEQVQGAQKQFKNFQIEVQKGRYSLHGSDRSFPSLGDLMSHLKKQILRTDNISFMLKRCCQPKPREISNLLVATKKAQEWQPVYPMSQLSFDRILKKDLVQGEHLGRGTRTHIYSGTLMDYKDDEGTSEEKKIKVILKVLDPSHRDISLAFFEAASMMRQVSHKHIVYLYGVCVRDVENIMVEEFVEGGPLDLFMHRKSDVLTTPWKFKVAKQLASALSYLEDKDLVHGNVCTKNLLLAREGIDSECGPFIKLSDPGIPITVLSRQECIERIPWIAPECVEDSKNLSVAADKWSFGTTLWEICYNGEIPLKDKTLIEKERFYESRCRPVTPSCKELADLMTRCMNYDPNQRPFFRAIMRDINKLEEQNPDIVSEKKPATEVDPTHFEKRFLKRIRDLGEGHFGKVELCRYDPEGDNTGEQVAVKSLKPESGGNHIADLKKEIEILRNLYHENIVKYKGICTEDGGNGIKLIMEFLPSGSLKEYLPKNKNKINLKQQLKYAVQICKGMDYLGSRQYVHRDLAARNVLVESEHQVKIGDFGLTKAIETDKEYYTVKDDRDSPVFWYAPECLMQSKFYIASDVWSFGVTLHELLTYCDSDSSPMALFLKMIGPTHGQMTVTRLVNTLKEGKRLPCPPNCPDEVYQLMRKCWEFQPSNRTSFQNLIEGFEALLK

Structure (SMILES) | Caco Kp [1] | Tall-1 (pIC50) [2] | JAK 1 (pKi) [3] | JAK 2 (pKi) [4] | Tyk 2 (pKi) [5] | JAK 3 (pKi) [6] | JAK3 (pKi)-JAK1 (pKi) [6]
C=CC(=O)N1CC(CCn2c(=O)ccc3cnc(Nc4ccc(N5CCN(C(=O)OCCOC)CC5)cc4)nc32)C1 [Example 99] | A (A represents a value below 5×10^−6 cm/sec) | B (B represents a pC50 value between 6.7 (included) and 7.5 (IC50 between 200 nM and 32 nM)) | E (E represents a pKi value of 7 or below (Ki of 100 nM or above)) | E (E represents a pKi value of 7 or below (Ki of 100 nM or above)) | E (E represents a pKi value of 7 or below (Ki of 100 nM or above)) | A (A represents a pKi value≥10 (Ki≤0.1 nM)) | A (A represents a value of 3 or above)
C=CC(=O)N1CC(CCn2c(=O)ccc3cnc(Nc4ccc(N5CCN(C(=O)OC(C)C)CC5)cc4)nc32)C1 [Example 100] | A (A represents a value below 5×10^−6 cm/sec) | A (A represents a pIC50 value≥7.5 (IC50≤32 nM)) | E (E represents a pKi value of 7 or below (Ki of 100 nM or above)) | E (E represents a pKi value of 7 or below (Ki of 100 nM or above)) | E (E represents a pKi value of 7 or below (Ki of 100 nM or above)) | A (A represents a pKi value≥10 (Ki≤0.1 nM)) | A (A represents a value of 3 or above)
C=CC(=O)N1CC(CCn2c(=O)ccc3cnc(Nc4ccc(N5CCN(S(=O)(=O)CC#N)CC5)cc4)nc32)C1 [Example 101] | A (A represents a value below 5×10^−6 cm/sec) | B (B represents a pC50 value between 6.7 (included) and 7.5 (IC50 between 200 nM and 32 nM)) | E (E represents a pKi value of 7 or below (Ki of 100 nM or above)) | E (E represents a pKi value of 7 or below (Ki of 100 nM or above)) | E (E represents a pKi value of 7 or below (Ki of 100 nM or above)) | A (A represents a pKi value≥10 (Ki≤0.1 nM)) | A (A represents a value of 3 or above)
C=CC(=O)N1CC(CCn2c(=O)ccc3cnc(Nc4ccc(N5CCN(C(=O)[C@@H](C)O)CC5)cc4)nc32)C1 [Example 105] | A (A represents a value below 5×10^−6 cm/sec) | B (B represents a pC50 value between 6.7 (included) and 7.5 (IC50 between 200 nM and 32 nM)) | E (E represents a pKi value of 7 or below (Ki of 100 nM or above)) | E (E represents a pKi value of 7 or below (Ki of 100 nM or above)) | E (E represents a pKi value of 7 or below (Ki of 100 nM or above)) | A (A represents a pKi value≥10 (Ki≤0.1 nM)) | A (A represents a value of 3 or above)
C=CC(=O)N1CC(CCn2c(=O)ccc3cnc(Nc4ccc(N5CCN(C(=O)[C@H](C)O)CC5)cc4)nc32)C1 [Example 106] | A (A represents a value below 5×10^−6 cm/sec) | B (B represents a pC50 value between 6.7 (included) and 7.5 (IC50 between 200 nM and 32 nM)) | E (E represents a pKi value of 7 or below (Ki of 100 nM or above)) | E (E represents a pKi value of 7 or below (Ki of 100 nM or above)) | E (E represents a pKi value of 7 or below (Ki of 100 nM or above)) | A (A represents a pKi value≥10 (Ki≤0.1 nM)) | A (A represents a value of 3 or above)
C=CC(=O)N1CC(CCn2c(=O)ccc3cnc(Nc4cccc(N5CCN(C(=O)COC)CC5)c4)nc32)C1 [Example 108] | A (A represents a value below 5×10^−6 cm/sec) | B (B represents a pC50 value between 6.7 (included) and 7.5 (IC50 between 200 nM and 32 nM)) | E (E represents a pKi value of 7 or below (Ki of 100 nM or above)) | E (E represents a pKi value of 7 or below (Ki of 100 nM or above)) | E (E represents a pKi value of 7 or below (Ki of 100 nM or above)) | B (B represents pKi value between 9 and 10 (Ki between 1 nM and 0.1 nM)) | A (A represents a value of 3 or above)
C=CC(=O)N1CC(CCn2c(=O)ccc3cnc(Nc4ccc(N5CCN(C(=O)C(F)(F)F)CC5)cc4)nc32)C1 [Example 109] | C (C represents a value between 10×10^−6 and 30×10^−6 cm/sec) | B (B represents a pC50 value between 6.7 (included) and 7.5 (IC50 between 200 nM and 32 nM)) | D (D represents a pKi value between 7 and 8 (Ki between 100 nM and 10 nM)) | E (E represents a pKi value of 7 or below (Ki of 100 nM or above)) | E (E represents a pKi value of 7 or below (Ki of 100 nM or above)) | B (B represents pKi value between 9 and 10 (Ki between 1 nM and 0.1 nM)) | B (B represents a value of 2.5 to 3)
C=CC(=O)N1CC(CCn2c(=O)ccc3cnc(Nc4ccc(N5CCN(CCOCC)CC5)cc4)nc32)C1 [Example 117] | C (C represents a value between 10×10^−6 and 30×10^−6 cm/sec) | A (A represents a pIC50 value≥7.5 (IC50≤32 nM)) | E (E represents a pKi value of 7 or below (Ki of 100 nM or above)) | E (E represents a pKi value of 7 or below (Ki of 100 nM or above)) | E (E represents a pKi value of 7 or below (Ki of 100 nM or above)) | A (A represents a pKi value≥10 (Ki≤0.1 nM)) | A (A represents a value of 3 or above)
C=CC(=O)N1CC(CCn2c(=O)ccc3cnc(Nc4cccc(N5CCN(C(=O)OC)CC5)c4)nc32)C1 [Example 123] | C (C represents a value between 10×10^−6 and 30×10^−6 cm/sec) | B (B represents a pC50 value between 6.7 (included) and 7.5 (IC50 between 200 nM and 32 nM)) | E (E represents a pKi value of 7 or below (Ki of 100 nM or above)) | E (E represents a pKi value of 7 or below (Ki of 100 nM or above)) | E (E represents a pKi value of 7 or below (Ki of 100 nM or above)) | B (B represents pKi value between 9 and 10 (Ki between 1 nM and 0.1 nM)) | A (A represents a value of 3 or above)
C=CC(=O)N1CC(CCn2c(=O)ccc3cnc(Nc4cccc(N5CCN(C(=O)N(C)C)CC5)c4)nc32)C1 [Example 124] | B (B represents a value between 5×10^−6 and 10×10^−6 cm/sec) | B (B represents a pC50 value between 6.7 (included) and 7.5 (IC50 between 200 nM and 32 nM)) | E (E represents a pKi value of 7 or below (Ki of 100 nM or above)) | E (E represents a pKi value of 7 or below (Ki of 100 nM or above)) | E (E represents a pKi value of 7 or below (Ki of 100 nM or above)) | A (A represents a pKi value≥10 (Ki≤0.1 nM)) | A (A represents a value of 3 or above)
C=CC(=O)N1CC(CCn2c(=O)ccc3cnc(Nc4cccc(CN5CCN(S(=O)(=O)CC#N)CC5)c4)nc32)C1 [Example 125] | B (B represents a value between 5×10^−6 and 10×10^−6 cm/sec) | B (B represents a pC50 value between 6.7 (included) and 7.5 (IC50 between 200 nM and 32 nM)) | E (E represents a pKi value of 7 or below (Ki of 100 nM or above)) | E (E represents a pKi value of 7 or below (Ki of 100 nM or above)) | E (E represents a pKi value of 7 or below (Ki of 100 nM or above)) | A (A represents a pKi value≥10 (Ki≤0.1 nM)) | A (A represents a value of 3 or above)
